Strand notation (5' to 3'): a small letter for the sugar, then the base; units joined by * are phosphorothioate-linked, units joined directly phosphodiester-linked; [ ] holds rarer units or linkages, { } end groups; capitals alone tell only the bases. d = 2'-deoxy (DNA)
Experiments:
Type in all cases: cell-based, human
wild-type EGFR = assay: Western immunoblotting of EGFR expression and downstream signaling in wild-type EGFR cell lines; conditions: A549 and CL1-5 cells, 100 nM
Procedure: A549, CL1-5, H1975, or CL97 was seeded onto 6-well at 3×10^5 cells/well and cultured overnight. Then, cells were separately treated with 100 nM DzControl or DzT790M-1 with lipofectamine 2000 (Invitrogen). The transfected A549 and CL1-5 cells were serum-starved for 24 h and treated with 100 ng/ml of EGF at 37° C. for 15 min. 72 h after transfection, cell were collected for analysis. Cells were washed twice by ice-cold PBS and then total protein was extracted by RIPA buffer with protease inhibitor (Roche). 50 μg of total protein from the supernatants were boiled for 5 min at 95° C. The samples were resolved on 10% SDS-PAGE gel and transferred onto nitrocellulose membranes. EGFR expression and downstream signaling were detected by using primary antibodies specific to human pEGFR(Y1068) (Cell signaling), tEGFR (Santa Cruz), pSTAT3 (Y705) (Cell signaling), tSTAT3 (Cell signaling), pAKT (5473)(Cell signaling), tAKT (Santa Cruz), pERK (T202/Y204) (Cell signaling), tERK (Santa Cruz), and cleaved PARP (Cell signaling) at 1:1000 dilution and β-actin (Santa Cruz) at 1:10000 dilution, respectively. Secondary antibodies against rabbit IgG or mouse IgG was used at 1:5000 dilution. Protein bands on membrane were visualized by exposure to the chemiluminescence substrate.
EGFR belongs to receptor tyrosine kinases. The binding of its extracellular ligands triggers receptor dimerization, tyrosine residues phosphorylation, and downstream signaling activation including signal transducer and activator of transcription 3 (STAT3), Akt, extracellular signal regulated kinases (ERK), and others. To examine the effects of DzT790M on protein expression level of EGFR and its downstream signaling, western immunoblotting was performed on DzT790M transfected cells. A549, CL1-5, H1975, or CL97 was seeded onto 6-well at 3×10^5 cells/well and cultured overnight. Then, cells were separately treated with 100 nM DzControl or DzT790M-1 with lipofectamine 2000 (Invitrogen). The transfected A549 and CL1-5 cells were serum-starved for 24 h and treated with 100 ng/ml of EGF at 37° C. for 15 min. 72 h after transfection, cell were collected for analysis. Cells were washed twice by ice-cold PBS and then total protein was extracted by RIPA buffer with protease inhibitor (Roche). […] Also, activation of downstream STAT3, AKT, and ERK signaling after EGF treatment were not inhibited by DzT790M-1 or DzT790M-2 transfection.
CL1-5 (EGFR wild-type) or H1975 (EGFR T790M) were seeded onto 6-well at 3×10^5 cells/well and cultured overnight. […] The transfected CL1-5 cells were serum-starved for 24 h and treated with 100 ng/ml of EGF at 37° C. for 15 min. 72 h after transfection, cells were collected for western blotting analysis following the above mentioned procedure. […]

CL97 cells = assay: Apoptosis assay (annexin V and PI, flow cytometry); conditions: 100 nM, 48 h
Procedure: (§1) H1975 or CL97 was seeded onto 10-cm dish and cultured overnight. Then, cells were separately treated with 100 nM DzControl or DzT790M-1 with lipofectamine 2000 (Invitrogen). After 48 h, cells were collected, double stained by annexin V and PI, and analyzed by flow cytometry following the protocol of Dead cell apoptosis kit from manufacturer (Invitrogen).

H1975 cells = assay: Apoptosis assay (annexin V and PI, flow cytometry); conditions: 100 nM, 48 h
Procedure: as §1

H1975 cells (EGFR T790M) = assay: Cell viability assay (MTT); conditions: 100 nM by lipofectamine transfection, 72 h

## DzT790M-1: 10-23 DNAzyme against EGFR T790M mRNA, arms 10/4, phosphorothioate ends: AGCTGCATGAGGCTAGCTACAACGAGAGC (DNA dA*dGdCdTdGdCdAdTdGdAdGdGdCdTdAdGdCdTdAdCdAdAdCdGdAdGdAdG*dC; further chemistry not fully specified)
wild-type EGFR; 100 ng/ml EGF 15 min
  activation of downstream STAT3, AKT, and ERK signaling after EGF treatment: not inhibited
wild-type EGFR; 72 h after transfection
  protein level of EGFR compared to DzControl group: did not decreased
CL97 cells
  percentage of apoptotic cells in whole cell population: 27.4%
  percentage of dead cells in whole cell population: 25.1%
H1975 cells
  apoptotic cells: 18.6%
  dead cells (annexin V and PI double positive): 32.6%
H1975 cells (EGFR T790M)
  anti-proliferation effect: 50%

From US9856480B2, “Dnazyme for silencing the expression of EGFR” (DCB-USA LLC, priority 2013, dated 2018)
